Assay results taken from US20210395239A1 (Hoffmann-La Roche Inc., priority 2018, published 2021).

target: T1, human TLR7 (Homo sapiens, UniProt Q9NYK1); assay: HEK293-Blue-hTLR-7 cells assay (SEAP reporter, R848 stimulation); format: cell-based; conditions: HEK293-Blue-hTLR7 cells, R848, 20 hrs; read-out: HEK/hTLR7 IC50
T1 construct: host or cells: HEK293 (HEK-Blue hTLR7)
T1 sequence (Q9NYK1 27-1049): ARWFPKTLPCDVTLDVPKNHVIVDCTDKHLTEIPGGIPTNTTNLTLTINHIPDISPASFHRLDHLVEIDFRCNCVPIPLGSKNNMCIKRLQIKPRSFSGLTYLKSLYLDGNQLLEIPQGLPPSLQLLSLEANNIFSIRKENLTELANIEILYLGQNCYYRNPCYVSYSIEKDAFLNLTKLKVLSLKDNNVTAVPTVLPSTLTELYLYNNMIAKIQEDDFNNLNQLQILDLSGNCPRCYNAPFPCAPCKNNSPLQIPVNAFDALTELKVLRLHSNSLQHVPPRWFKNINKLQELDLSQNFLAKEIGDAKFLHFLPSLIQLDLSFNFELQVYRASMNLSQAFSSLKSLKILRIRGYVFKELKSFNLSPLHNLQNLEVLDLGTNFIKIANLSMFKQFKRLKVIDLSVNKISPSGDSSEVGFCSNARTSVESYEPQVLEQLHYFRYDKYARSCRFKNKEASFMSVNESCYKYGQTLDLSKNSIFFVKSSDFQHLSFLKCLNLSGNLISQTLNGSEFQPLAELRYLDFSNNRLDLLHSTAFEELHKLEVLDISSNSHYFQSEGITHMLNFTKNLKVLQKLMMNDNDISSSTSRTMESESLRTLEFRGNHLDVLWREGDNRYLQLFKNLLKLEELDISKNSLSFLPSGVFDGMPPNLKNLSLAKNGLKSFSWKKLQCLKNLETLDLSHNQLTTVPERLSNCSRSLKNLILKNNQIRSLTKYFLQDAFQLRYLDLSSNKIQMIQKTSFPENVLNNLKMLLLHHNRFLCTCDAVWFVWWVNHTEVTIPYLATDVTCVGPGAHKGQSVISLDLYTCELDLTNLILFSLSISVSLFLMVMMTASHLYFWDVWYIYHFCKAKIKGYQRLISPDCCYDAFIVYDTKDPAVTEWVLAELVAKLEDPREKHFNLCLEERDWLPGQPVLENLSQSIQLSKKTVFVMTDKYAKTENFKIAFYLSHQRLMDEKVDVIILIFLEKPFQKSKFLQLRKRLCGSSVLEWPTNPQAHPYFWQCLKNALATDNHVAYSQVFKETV
Procedure, shortened: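 HEK293-Blue-hTLR7 cells (NF-κB/AP-1-driven SEAP reporter) were stimulated with R848 alongside serially diluted compound at 1% final DMSO for 20 h at 37 °C. Supernatant SEAP was then developed with QUANTI-Blue for 2 h at 37 °C and absorbance read at 620–655 nm; antagonism is measured as reduced reporter signal.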

Q: `[2H]c1ccc2c(N3C[C@H](CN4CCN(c5nc(C)cc(N6C[C@H](OC)[C@@H](N)C6)n5)CC4)O[C@H](C)C3)ccc(C#N)c2n1` [Example 134, 5-[(2S,6R)-2-[[4-[4-[(3S,4S)-3-amino-4-methoxy-pyrrolidin-1-yl]-6-methyl-pyrimidin-2-yl]piperazin-1-yl]methyl]-6-methyl-morpholin-4-yl]-2-deuterio-quinoline-8-carbonitrile] was tested. Which IC50 did it give?
A: 25 nM

Q: Which IC50 does the source give for `[2H]c1ccc2c(N3C[C@H](CN4CCN(c5nc(C)cc(N6CC(C)(N)C6)n5)CC4)O[C@H](C)C3)ccc(C#N)c2n1` [Example 135, 5-[(2S,6R)-2-[[4-[4-(3-amino-3-methyl-azetidin-1-yl)-6-methyl-pyrimidin-2-yl]piperazin-1-yl]methyl]-6-methyl-morpholin-4-yl]-2-deuterio-quinoline-8-carbonitrile] here?
A: 16 nM

Q: Which IC50 does the source give for `[2H]c1ccc2c(N3C[C@H](CN4CCN(c5nc(C)cc(N6CC(N)C6)n5)CC4)O[C@H](C)C3)ccc(C#N)c2n1` [Example 136, 5-[(2S,6R)-2-[[4-[4-(3-aminoazetidin-1-yl)-6-methyl-pyrimidin-2-yl]piperazin-1-yl]methyl]-6-methyl-morpholin-4-yl]-2-deuterio-quinoline-8-carbonitrile] here?
A: 7 nM

Q: `[2H]c1ccc2c(N3C[C@H](CN4CCN(c5ccc(N6CC(C)(N)C6)nc5C)CC4)O[C@H](C)C3)ccc(C#N)c2n1` [Example 137, 5-[(2S,6R)-2-[[4-[6-(3-amino-3-methyl-azetidin-1-yl)-2-methyl-3-pyridyl]piperazin-1-yl]methyl]-6-methyl-morpholin-4-yl]-2-deuterio-quinoline-8-carbonitrile] was tested. Which IC50 did it give?
A: 19 nM

Q: Which IC50 does the source give for `[2H]c1ccc2c(N3C[C@H](CN4CC(c5ccc(N6CC(C)(N)C6)nc5)C4)O[C@H](C)C3)ccc(C#N)c2n1` [Example 138, 5-[(2S,6R)-2-[[3-[6-(3-amino-3-methyl-azetidin-1-yl)-3-pyridyl]azetidin-1-yl]methyl]-6-methyl-morpholin-4-yl]-2-deuterio-quinoline-8-carbonitrile] here?
A: 5 nM

Q: For `[2H]c1ccc2c(N3C[C@H](CN4CCN(c5ncc(N6CC(C)(N)C6)cc5C)CC4)O[C@H](C)C3)ccc(C#N)c2n1` [Example 139, 5-[(2S,6R)-2-[[4-[5-(3-amino-3-methyl-azetidin-1-yl)-3-methyl-2-pyridyl]piperazin-1-yl]methyl]-6-methyl-morpholin-4-yl]-2-deuterio-quinoline-8-carbonitrile], which IC50 is on record?
A: 20 nM

Q: How did the IC50 turn out when `[2H]c1ccc2c(N3C[C@H](CN4CC(c5ccc(N6C[C@H](OC)[C@@H](N)C6)cc5)C4)O[C@H](C)C3)ccc(C#N)c2n1` [Example 140, 5-[(2S,6R)-2-[[3-[4-[(3S,4S)-3-amino-4-methoxy-pyrrolidin-1-yl]phenyl]azetidin-1-yl]methyl]-6-methyl-morpholin-4-yl]-2-deuterio-quinoline-8-carbonitrile] was run?
A: 22 nM

Q: How did the IC50 turn out when `[2H]c1ccc2c(N3C[C@H](CN4CC(c5ccc(N6CC(C)(N)C6)cc5)C4)O[C@H](C)C3)ccc(C#N)c2n1` [Example 141, 5-[(2S,6R)-2-[[3-[4-(3-amino-3-methyl-azetidin-1-yl)phenyl]azetidin-1-yl]methyl]-6-methyl-morpholin-4-yl]-2-deuterio-quinoline-8-carbonitrile] was run?
A: 4 nM

Q: With `[2H]c1ccc2c(N3C[C@H](CN4CCN(c5ncc(N6C[C@@H](N)[C@H](OC)C6)cc5C)CC4)O[C@H](C)C3)ccc(C#N)c2n1` [Example 142, 5-[(2S,6R)-2-[[4-[5-[(3R,4R)-3-amino-4-methoxy-pyrrolidin-1-yl]-3-methyl-2-pyridyl]piperazin-1-yl]methyl]-6-methyl-morpholin-4-yl]-2-deuterio-quinoline-8-carbonitrile] as the molecule, how does the IC50 read?
A: 20 nM

Q: For `[2H]c1ccc2c(N3C[C@H](CN4CCN(c5ccc(N6C[C@@H](N)[C@H](OC)C6)nc5)CC4)O[C@H](C)C3)ccc(C#N)c2n1` [Example 143, 5-[(2S,6R)-2-[[4-[6-[(3R,4R)-3-amino-4-methoxy-pyrrolidin-1-yl]-3-pyridyl]piperazin-1-yl]methyl]-6-methyl-morpholin-4-yl]-2-deuterio-quinoline-8-carbonitrile], which IC50 is on record?
A: 21 nM

Q: How did the IC50 turn out when `[2H]c1ccc2c(N3C[C@H](CN4CCN(c5nc(C)cc(N6C[C@@H](N)[C@H](OC)C6)n5)CC4)O[C@H](C)C3)ccc(C#N)c2n1` [Example 144, 5-[(2S,6R)-2-[[4-[4-[(3R,4R)-3-amino-4-methoxy-pyrrolidin-1-yl]-6-methyl-pyrimidin-2-yl]piperazin-1-yl]methyl]-6-methyl-morpholin-4-yl]-2-deuterio-quinoline-8-carbonitrile] was run?
A: 11 nM

Q: How did the IC50 turn out when `[2H]c1ccc2c(N3C[C@H](CN4CC(c5cnc(N6CC(C)(N)C6)cc5C)C4)O[C@H](C)C3)ccc(C#N)c2n1` [Example 145, 5-[(2S,6R)-2-[[3-[6-(3-amino-3-methyl-azetidin-1-yl)-4-methyl-3-pyridyl]azetidin-1-yl]methyl]-6-methyl-morpholin-4-yl]-2-deuterio-quinoline-8-carbonitrile] was run?
A: 14 nM

Q: How did the IC50 turn out when `[2H]c1ccc2c(N3C[C@H](CN4CC(c5cnc(N6C[C@@H](N)[C@H](OC)C6)cc5C)C4)O[C@H](C)C3)ccc(C#N)c2n1` [Example 146, 5-[(2S,6R)-2-[[3-[6-[(3R,4R)-3-amino-4-methoxy-pyrrolidin-1-yl]-4-methyl-3-pyridyl]azetidin-1-yl]methyl]-6-methyl-morpholin-4-yl]-2-deuterio-quinoline-8-carbonitrile] was run?
A: 13 nM

Q: Which IC50 does the source give for `[2H]c1ccc2c(N3C[C@H](CN4CCN(c5ccc(N6CC(C)(N)C6)c(C)n5)CC4)O[C@H](C)C3)ccc(C#N)c2n1` [Example 147, 5-[(2S,6R)-2-[[4-[5-(3-amino-3-methyl-azetidin-1-yl)-6-methyl-2-pyridyl]piperazin-1-yl]methyl]-6-methyl-morpholin-4-yl]-2-deuterio-quinoline-8-carbonitrile] here?
A: 53 nM

Q: With `Cc1cc(N2CC(C)(N)C2)cnc1N1CCN(C[C@H]2CN(c3ccc(C#N)n4ncc(F)c34)C[C@@H](C)O2)CC1` [Example 148, 4-[(2S,6R)-2-[[4-[5-(3-amino-3-methyl-azetidin-1-yl)-3-methyl-2-pyridyl]piperazin-1-yl]methyl]-6-methyl-morpholin-4-yl]-3-fluoro-pyrazolo[1,5-a]pyridine-7-carbonitrile] as the molecule, how does the IC50 read?
A: 56 nM

Q: `[2H]c1ccc2c(N3C[C@H](CN4CC(c5ccc(N6C[C@@H](N)[C@H](OC)C6)nc5)C4)O[C@H](C)C3)ccc(C#N)c2n1` [Example 149, 5-[(2S,6R)-2-[[3-[6-[(3R,4R)-3-amino-4-methoxy-pyrrolidin-1-yl]-3-pyridyl]azetidin-1-yl]methyl]-6-methyl-morpholin-4-yl]-2-deuterio-quinoline-8-carbonitrile] was tested. Which IC50 did it give?
A: 16 nM

Q: With `[2H]c1ccc2c(N3C[C@H](CN4CCN(c5ccc(N6C[C@H](N)[C@@H](F)C6)nc5)CC4)O[C@H](C)C3)ccc(C#N)c2n1` [Example 150, 5-[(2S,6R)-2-[[4-[6-[(3S,4S)-3-amino-4-fluoro-pyrrolidin-1-yl]-3-pyridyl]piperazin-1-yl]methyl]-6-methyl-morpholin-4-yl]-2-deuterio-quinoline-8-carbonitrile] as the molecule, how does the IC50 read?
A: 35 nM

Q: How did the IC50 turn out when `[2H]c1ccc2c(N3C[C@H](CN4CCN(c5ccc(N6C[C@@H]7C[C@H]6CN7)nc5)CC4)O[C@H](C)C3)ccc(C#N)c2n1` [Example 151, 2-deuterio-5-[(2S,6R)-2-[[4-[6-[(1S,4S)-2,5-diazabicyclo[2.2.1]heptan-2-yl]-3-pyridyl]piperazin-1-yl]methyl]-6-methyl-morpholin-4-yl]quinoline-8-carbonitrile] was run?
A: 35 nM
